Source: ChEMBL document CHEMBL1137069, “Design, synthesis and anti-microbial activity of 1H-pyrazole carboxylates” (2004)
“And” between values parts separate entries of the source, which are not always exact repeats. Identical values can stand only once.

Key:
Format in all cases: functional
[1] = Antifungal activity against Bipolaris oryzae was determined at 0.1 mg/mL concentration
[2] = Antifungal activity against Bipolaris oryzae was measured as mycelial growth at 0.1 mg/mL concentration
Thanatephorus cucumeris [3] = test: Antifungal activity against Rhizoctonia solani was determined at 0.5 mg/mL concentration
Staphylococcus aureus [4] = test: Antibacterial activity against Staphylococcus aureus was determined at 0.5 mg/mL concentration
Enterococcus faecalis [5] = test: Antibacterial activity against […] was determined at 0.1 mg/mL concentration
Alternaria alternata [6] = test: Antifungal activity against Alternaria alternata was measured as mycelial growth at 0.1 mg/mL concentration
Fusarium oxysporum [7] = test: Antifungal activity against Fusarium oxysporum was determined at 0.5 mg/mL concentration
Escherichia coli [8] = test: Antibacterial activity against Escherichia coli was determined at 0.5 mg/mL concentration
Curvularia lunata [9] = test: Antifungal activity against Curvularia lunata was measured as mycelial growth at 0.1 mg/mL concentration
[10] = Antifungal activity against Bipolaris oryzae was measured as mycelial growth at 0.5 mg/mL concentration
Curvularia lunata [11] = test: Antifungal activity against Curvularia lunata was determined at 0.5 mg/mL concentration
Fusarium oxysporum [12] = test: Antifungal activity against Fusarium oxysporum was measured as mycelial growth at 0.1 mg/mL concentration
Staphylococcus aureus [13] = test: Antibacterial activity against Staphylococcus aureus was determined at 0.1 mg/mL concentration
Thanatephorus cucumeris [14] = test: Antifungal activity against Rhizoctonia solani was measured as mycelial growth at 0.1 mg/mL concentration
Alternaria alternata [15] = test: Antifungal activity against Alternaria alternata was measured as mycelial growth at 0.5 mg/mL concentration
Staphylococcus aureus [16] = test: Antibacterial activity against Staphylococcus aureus was measured as area of inhibition zone at 0.1 mg/mL concentration; conditions: for zone of inhibition at 100 µg/mL: Staphylococcus aureus
Alternaria alternata [17] = test: Antifungal activity against Alternaria alternata was determined at 0.5 mg/mL concentration
Alternaria alternata [18] = test: Antifungal activity against Alternaria alternata was determined at 0.1 mg/mL concentration
Enterococcus faecalis [19] = test: Antibacterial activity against […] was measured as area of inhibition zone at 0.1 mg/mL concentration
[20] = Antifungal activity against Bipolaris oryzae was determined at 0.5 mg/mL concentration
Pseudomonas aeruginosa [21] = test: Antibacterial activity against Pseudomonas aeruginosa was measured as area of inhibition zone at 0.1 mg/mL concentration; conditions: for zone of inhibition at 100 µg/mL: Pseudomonas aeruginosa
[22] = Antibacterial activity against Escherichia coli was measured as area of inhibition zone at 0.1 mg/mL concentration; conditions: for zone of inhibition at 100 µg/mL: Escherichia coli
Curvularia lunata [23] = test: Antifungal activity against Curvularia lunata was measured as mycelial growth at 0.5 mg/mL concentration
Fusarium oxysporum [24] = test: Antifungal activity against Fusarium oxysporum was measured as mycelial growth at 0.5 mg/mL concentration
Escherichia coli [25] = test: Antibacterial activity against Escherichia coli was determined at 0.1 mg/mL concentration
Curvularia lunata [26] = test: Antifungal activity against Curvularia lunata was determined at 0.1 mg/mL concentration
Pseudomonas aeruginosa [27] = test: Antibacterial activity against Pseudomonas aeruginosa was determined at 0.5 mg/mL concentration
Fusarium oxysporum [28] = test: Antifungal activity against Fusarium oxysporum was determined at 0.1 mg/mL concentration
Thanatephorus cucumeris [29] = test: Antifungal activity against Rhizoctonia solani was measured as mycelial growth at 0.5 mg/mL concentration
Enterococcus faecalis [30] = test: Antibacterial activity against […] was determined at 0.5 mg/mL concentration
Pseudomonas aeruginosa [31] = test: Antibacterial activity against Pseudomonas aeruginosa was determined at 0.1 mg/mL concentration
Thanatephorus cucumeris [32] = test: Antifungal activity against Rhizoctonia solani was determined at 0.1 mg/mL concentration

Compound | inhibition at 100 µg/mL [1] [%] | Mycelial growth [2] [cm] | inhibition at 500 µg/mL (Thanatephorus cucumeris [3]) [%] | inhibition at 500 µg/mL (Staphylococcus aureus [4]) [%] | inhibition at 100 µg/mL (Enterococcus faecalis [5]) [%] | Mycelial growth (Alternaria alternata [6]) [cm] | inhibition at 500 µg/mL (Fusarium oxysporum [7]) [%] | inhibition at 500 µg/mL (Escherichia coli [8]) [%] | Mycelial growth (Curvularia lunata [9]) [cm] | Mycelial growth [10] [cm] | inhibition at 500 µg/mL (Curvularia lunata [11]) [%] | Mycelial growth (Fusarium oxysporum [12]) [cm] | inhibition at 100 µg/mL (Staphylococcus aureus [13]) [%] | Mycelial growth (Thanatephorus cucumeris [14]) [cm] | Mycelial growth (Alternaria alternata [15]) [cm] | Inhibition Zone (Staphylococcus aureus [16]) | inhibition at 500 µg/mL (Alternaria alternata [17]) [%] | inhibition at 100 µg/mL (Alternaria alternata [18]) [%] | zone of inhibition at 100 µg/mL (Enterococcus faecalis [19]) [mm] | inhibition at 500 µg/mL [20] [%] | also measured
CCOC(=O)c1cn(-c2ccc([N+](=O)[O-])cc2[N+](=O)[O-])nc1C | 33.3 | 6 | 11.1 | 91.1 | 55.6 | 5.5 | 40 | 86.7 | 6.5 | 4.5 | 41.1 | 6.3 | 58.9 | 9 | 4.8 | 5.3 cm | 46.7 | 38.9 | 76 | 5 | zone of inhibition at 100 µg/mL (Staphylococcus aureus [16]): 82 mm; zone of inhibition at 100 µg/mL (Pseudomonas aeruginosa [21]): 0 mm; Inhibition Zone [22]: 7.8 cm and 4.6 cm; zone of inhibition at 100 µg/mL [22]: 50 mm; Mycelial growth (Curvularia lunata [23]): 5.3 cm; Mycelial growth (Fusarium oxysporum [24]): 5.4 cm; inhibition at 100 µg/mL (Escherichia coli [25]): 51.1%; inhibition at 100 µg/mL (Curvularia lunata [26]): 27.8%; inhibition at 500 µg/mL (Pseudomonas aeruginosa [27]): 0%; inhibition at 100 µg/mL (Fusarium oxysporum [28]): 30%; Mycelial growth (Thanatephorus cucumeris [29]): 8 cm; inhibition at 500 µg/mL (Enterococcus faecalis [30]): 84.4%; inhibition at 100 µg/mL (Pseudomonas aeruginosa [31]): 0%; inhibition at 100 µg/mL (Thanatephorus cucumeris [32]): 0%
CCOC(=O)c1cn(-c2ccc([N+](=O)[O-])cc2[N+](=O)[O-])nc1-c1ccccc1 | 37.8 | 5.6 | 26.6 | 84.4 | 47.8 | 5.5 | 66.7 | 80 | 5.6 | 4.4 | 57.8 | 5.3 | 40 | 8 | 3.8 | 7.6 cm and 3.6 cm | 57.8 | 38.9 | 74 | 51.1 | Inhibition Zone (Pseudomonas aeruginosa [21]): 2.2 cm; zone of inhibition at 100 µg/mL (Pseudomonas aeruginosa [21]): 18 mm; Inhibition Zone [22]: 4.3 cm and 7.2 cm; zone of inhibition at 100 µg/mL [22]: 39 mm; Mycelial growth (Curvularia lunata [23]): 3.8 cm; Mycelial growth (Fusarium oxysporum [24]): 3 cm; inhibition at 100 µg/mL (Escherichia coli [25]): 43.3%; inhibition at 100 µg/mL (Curvularia lunata [26]): 37.8%; inhibition at 500 µg/mL (Pseudomonas aeruginosa [27]): 24.4%; inhibition at 100 µg/mL (Fusarium oxysporum [28]): 41.1%; Mycelial growth (Thanatephorus cucumeris [29]): 6.6 cm; inhibition at 500 µg/mL (Enterococcus faecalis [30]): 82.2%; inhibition at 100 µg/mL (Pseudomonas aeruginosa [31]): 20%; inhibition at 100 µg/mL (Thanatephorus cucumeris [32]): 11.1%
CCOC(=O)c1nn(-c2ccc([N+](=O)[O-])cc2[N+](=O)[O-])cc1C=O | 61.1 | 3.5 | 53.3 | 97.8 | 83.3 | 3.8 | 71.1 | 97.8 | 5.6 | 2.3 | 61.1 | 4.3 | 85.6 | 6.8 | 2.1 | 7.7 cm | 76.6 | 57.8 | 86 | 74.4 | zone of inhibition at 100 µg/mL (Staphylococcus aureus [16]): 88 mm; Inhibition Zone [22]: 7.5 cm and 8.8 cm; zone of inhibition at 100 µg/mL [22]: 73 mm; Mycelial growth (Curvularia lunata [23]): 3.5 cm; Mycelial growth (Fusarium oxysporum [24]): 2.6 cm; inhibition at 100 µg/mL (Escherichia coli [25]): 81.1%; inhibition at 100 µg/mL (Curvularia lunata [26]): 37.8%; inhibition at 500 µg/mL (Pseudomonas aeruginosa [27]): 25.6%; inhibition at 100 µg/mL (Fusarium oxysporum [28]): 52.2%; Mycelial growth (Thanatephorus cucumeris [29]): 4.2 cm; inhibition at 500 µg/mL (Enterococcus faecalis [30]): 95.6%; inhibition at 100 µg/mL (Pseudomonas aeruginosa [31]): 0%; inhibition at 100 µg/mL (Thanatephorus cucumeris [32]): 24.4%
